Laboratory results: patent US12071434B2, “Heterocyclic compound” (Takeda Pharmaceutical Company Limited, priority 2018, dated 2024)

target: T1, human orexin type 2 receptor (Homo sapiens, UniProt O43614); assay: Measurement of orexin type 2 receptor agonist activity (calcium fluorescence, Fluo-4 AM, FDSS) in CHO cells forcibly expressing human OX2 receptor; assay type: cell-based; conditions: test compound 3 μM, DMSO = 0%, orexin A (human) 10 nM = 100%
T1 construct: expressed in transfected cells
T1 sequence (O43614 1-444): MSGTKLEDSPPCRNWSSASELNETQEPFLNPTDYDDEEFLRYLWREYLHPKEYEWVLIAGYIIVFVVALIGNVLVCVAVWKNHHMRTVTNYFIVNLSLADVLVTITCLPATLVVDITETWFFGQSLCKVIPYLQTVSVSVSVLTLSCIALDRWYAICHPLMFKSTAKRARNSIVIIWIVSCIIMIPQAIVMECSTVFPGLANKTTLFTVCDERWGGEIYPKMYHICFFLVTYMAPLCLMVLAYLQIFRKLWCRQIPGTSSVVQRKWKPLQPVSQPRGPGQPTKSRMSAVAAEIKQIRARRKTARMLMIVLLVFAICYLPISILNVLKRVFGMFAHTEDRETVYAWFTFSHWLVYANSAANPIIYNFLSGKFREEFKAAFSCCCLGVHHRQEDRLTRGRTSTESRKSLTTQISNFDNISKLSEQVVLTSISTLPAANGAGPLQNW
Method in brief: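 CHO-dhfr cells stably expressing human OX2 receptor, loaded with Fluo-4 AM plus probenecid for 30 min at 37 °C, then 30 min at room temperature. Calcium fluorescence read for about 2 min 40 s after compound addition. Activity (%) scaled between DMSO (0%) and 10 nM human orexin A (100%).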

SMILES | 0X2R agonist activity (3 μM, %) [%]
Cc1ccc2n(c1=O)C(Cc1cccc(-c3cccc(F)c3)c1)C(NC(=O)[C@@H]1CCCO1)CC2 (stereo in doubt) [Example 44, (2S)-N-{(3S*,4S*)-4-[(3′-fluoro[1,1′-biphenyl]-3-yl)methyl]-7-methyl-6-oxo-1,3,4,6-tetrahydro-2H-quinolizin-3-yl}oxolane-2-carboxamide] | 96
CCn1ccc2c(c1=O)[C@@H](Cc1cccc(-c3cccc(C)c3)c1F)[C@@H](NS(C)(=O)=O)CC2 (racemic) [Example 93, rac-N-{(7S,8R)-2-ethyl-8-[(2-fluoro-3′-methyl[1,1′-biphenyl]-3-yl)methyl]-1-oxo-1,2,5,6,7,8-hexahydroisoquinolin-7-yl}methanesulfonamide] | 101
CC1OCC2CCC(NS(C)(=O)=O)C(Cc3cccc(-c4cccc(F)c4)c3)N2C1=O (racemic) [Example 165, rac-N-{(3R,6S,7S,9aR)-6-[(3′-fluoro[1,1′-biphenyl]-3-yl)methyl-3-methyl-4-oxooctahydropyrido[2,1-c][1,4]oxazin-7-yl}methanesulfonamide] | 97
CC(C)n1cnc2c(c1=O)[C@@H](Cc1cccc(-c3cc(F)cc(F)c3)c1F)[C@@H](NS(=O)(=O)C1(F)CC1)CC2 [Example 182, 1-fluoro-N-{(5R,6S)-4-oxo-3-(propan-2-yl)-5-[(2,3′,5′-trifluoro[1,1′-biphenyl]-3-yl)methyl]-3,4,5,6,7,8-hexahydroquinazolin-6-yl}cyclopropane-1-sulfonamide] | 101
CC(C)n1cnc2c(c1=O)[C@@H](Cc1cccc(-c3ccccc3F)c1F)[C@@H](NS(=O)(=O)C1(F)CC1)CC2 [Example 183, N-[(5R,6S)-5-[(2,2′-difluoro[1,1′-biphenyl]-3-yl)methyl]-4-oxo-3-(propan-2-yl)-3,4,5,6,7,8-hexahydroquinazolin-6-yl]-1-fluorocyclopropane-1-sulfonamide] | 95
CCc1ccc2n(c1=O)[C@@H](Cc1cccc(-c3ccccc3)c1F)[C@@H](NS(C)(=O)=O)CC2 (racemic) [Example 104, rac-N-{(3S,4S)-7-ethyl-4-[(2-fluoro[1,1′-biphenyl]-3-yl)methyl]-6-oxo-1,3,4,6-tetrahydro-2H-quinolizin-3-yl}methanesulfonamide] | 89
CC(C)N1CNC2=C(C1=O)[C@@H](Cc1csc(-c3ccccc3F)n1)[C@@H](NS(=O)(=O)C1(F)CC1)CC2 (relative stereo) [Example 157, rac-1-fluoro-N-[(5R,6S)-5-{[2-(2-fluorophenyl)-1,3-thiazol-4-yl]methyl}-4-oxo-3-(propan-2-yl)-1,2,3,4,5,6,7,8-octahydroquinazolin-6-yl]cyclopropane-1-sulfonamide] | 99
CC(C)n1cnc2c(c1=O)C(Cc1cccc(-c3cccc(F)c3F)c1)C(NS(=O)(=O)C1(F)CC1)CC2 (stereo not drawn) [Example 191, rel-N-{5-[(2′,3′-difluoro[1,1′-biphenyl]-3-yl)methyl]-4-oxo-3-(propan-2-yl)-3,4,5,6,7,8-hexahydroquinazolin-6-yl}-1-fluorocyclopropane-1-sulfonamide] | 90
CC(C)(O)c1ccc2n(c1=O)[C@@H](Cc1cccc(-c3ccccc3)c1)[C@@H](NS(C)(=O)=O)CC2 (racemic) [Example 33, rac-N-[(3S,4S)-4-[([1,1′-biphenyl]-3-yl)methyl]-7-(2-hydroxypropan-2-yl)-6-oxo-1,3,4,6-tetrahydro-2H-quinolizin-3-yl]methanesulfonamide] | 87
CC(C)n1cnc2c(c1=O)[C@@H](Cc1cccc(-c3cccc(F)c3F)c1F)[C@@H](NS(=O)(=O)C1(F)CC1)CC2 [Example 184, 1-fluoro-N-{(5R,6S)-4-oxo-3-(propan-2-yl)-5-[(2,2′,3′-trifluoro[1,1′-biphenyl]-3-yl)methyl]-3,4,5,6,7,8-hexahydroquinazolin-6-yl}cyclopropane-1-sulfonamide] | 98

Now from value to compound:

0X2R agonist activity (3 μM, %) [%] | SMILES
100 | CC(C)n1cnc2c(c1=O)C(Cc1cccc(-c3ccccc3)c1)C(NS(C)(=O)=O)C(F)C2=O (racemic) [Example 179, N-[(5RS,6RS)-5-[([1,1′-biphenyl]-3-yl)methyl]-7-fluoro-4,8-dioxo-3-(propan-2-yl)-3,4,5,6,7,8-hexahydroquinazolin-6-yl]methanesulfonamide]
101 | Cc1ccc2n(c1=O)[C@@H](Cc1cccc(-c3ccccc3)c1)[C@@H](NS(C)(=O)=O)CC2 (relative stereo) [Example 10, rel-N-{(3S,4S)-4-[([1,1′-biphenyl]-3-yl)methyl]-7-methyl-6-oxo-1,3,4,6-tetrahydro-2H-quinolizin-3-yl}methanesulfonamide]
85 | CC(C)n1cnc2c(c1=O)[C@@H](Cc1cccc(-c3ccccc3)c1F)[C@@H](NS(C)(=O)=O)[C@H](F)[C@H]2F (racemic) [Example 198, rac-N-[(5R,6R,7S,8S)-7,8-difluoro-5-[(2-fluoro[1,1′-biphenyl]-3-yl)methyl]-4-oxo-3-(propan-2-yl)-3,4,5,6,7,8-hexahydroquinazolin-6-yl]methanesulfonamide]
99 | CCc1ccc2n(c1=O)C(Cc1cccc(-c3ccccc3)c1)C(NS(C)(=O)=O)CC2 (racemic) [Example 27, rac-N-{(3S,4S)-4-[([1,1′-biphenyl]-3-yl)methyl]-7-ethyl-6-oxo-1,3,4,6-tetrahydro-2H-quinozilin-3-yl}methanesulfonamide]
51 | CS(=O)(=O)N[C@H]1CCc2c(Cl)nc(Cl)c(=O)n2[C@H]1Cc1cccc(-c2ccccc2)c1 (racemic) [Example 61, rac-N-{(6S,7S)-6-[([1,1′-biphenyl]-3-yl)methyl]-1,3-dichloro-4-oxo-6,7,8,9-tetrahydro-4H-pyrido[1,2-a]pyrazin-7-yl}methanesulfonamide]
95 | CC(C)n1cnc2c(c1=O)C(Cc1cccc(-c3ccccc3)c1)C(NS(=O)(=O)C1(F)CC1)CC2 (stereo not drawn) [Example 185, rel-N-{5-[([1,1′-biphenyl]-3-yl)methyl]-4-oxo-3-(propan-2-yl)-3,4,5,6,7,8-hexahydroquinazolin-6-yl}-1-fluorocyclopropane-1-sulfonamide]
96 | CC(C)n1cnc2c(c1=O)[C@@H](Cc1cccc(-c3ccccc3)c1)[C@@H](NS(=O)(=O)C1(F)CC1)CC2 (racemic) [Example 146, rac-N-[(5R,6S)-5-[([1,1′-biphenyl]-3-yl)methyl]-4-oxo-3-(propan-2-yl)-3,4,5,6,7,8-hexahydroquinazolin-6-yl]-1-fluorocyclopropane-1-sulfonamide]
93 | CCS(=O)(=O)N[C@H]1CCc2ncn(C(C)C)c(=O)c2[C@H]1Cc1cccc(-c2ccccc2)c1 (racemic) [Example 80, rac-N-[(5R,6S)-5-[([1,1′-biphenyl]-3-yl)methyl]-4-oxo-3-(propan-2-yl)-3,4,5,6,7,8-hexahydroquinazolin-6-yl]ethanesulfonamide]
103 | CC(C)n1cnc2c(c1=O)[C@@H](Cc1cc(F)cc(-c3ccccc3)c1)[C@@H](NS(C)(=O)=O)CC2 (relative stereo) [Example 141, rel-N-[(5R,6S)-5-[(5-fluoro[1,1′-biphenyl]-3-yl)methyl]-4-oxo-3-(propan-2-yl)-3,4,5,6,7,8-hexahydroquinazolin-6-yl]methanesulfonamide]
89 | CCS(=O)(=O)N[C@H]1CCc2ncn(C(C)C)c(=O)c2[C@H]1Cc1cccc(-c2cccc(F)c2F)c1 [Example 200, N-[(5R,6S)-5-[(2′,3′-difluoro[1,1′-biphenyl]-3-yl)methyl]-4-oxo-3-(propan-2-yl)-3,4,5,6,7,8-hexahydroquinazolin-6-yl]ethanesulfonamide]
98 | CC(C)n1cnc2c(c1=O)[C@@H](Cc1ccc(F)c(-c3ccccc3)c1)[C@@H](NS(C)(=O)=O)CC2 (relative stereo) [Example 150, rel-N-[(5R,6S)-5-[(6-fluoro[1,1′-biphenyl]-3-yl)methyl]-4-oxo-3-(propan-2-yl)-3,4,5,6,7,8-hexahydroquinazolin-6-yl]methanesulfonamide]
102 | Cn1ccc2c(c1=O)[C@@H](Cc1cccc(-c3ccccc3)c1)[C@@H](NS(C)(=O)=O)CC2 (racemic) [Example 46, rac-N-{(7S,8R)-8-[([1,1′-biphenyl]-3-yl)methyl]-2-methyl-1-oxo-1,2,5,6,7,8-hexahydroisoquinolin-7-yl}methanesulfonamide]
113 | Cc1cc(=O)n2c(c1C)CC[C@H](NS(C)(=O)=O)[C@@H]2Cc1cccc(-c2ccccc2)c1 (racemic) [Example 20, rac-N-{(3S,4S)-4-[([1,1′-biphenyl]-3-yl)methyl]-8,9-dimethyl-6-oxo-1,3,4,6-tetrahydro-2H-quinolizin-3-yl}methanesulfonamide]
105 | COc1ccc2n(c1=O)[C@@H](Cc1cccc(-c3ccccc3)c1)[C@@H](NS(C)(=O)=O)CC2 (racemic) [Example 34, rac-N-{(3S,4S)-4-[([1,1′-biphenyl]-3-yl)methyl]-7-methoxy-6-oxo-1,3,4,6-tetrahydro-2H-quinolizin-3-yl}methanesulfonamide]
